A word on the melting point: it is the temperature, or range, at which the solid turns liquid.

`Cc1cc(-c2cccc(Cl)c2)c2cc(C(O)(c3ccc(Cl)cc3)c3nnc(S)n3C)ccc2n1` (stereo not drawn) [Example B14a, 4-(3-chlorophenyl)-α-(4-chlorophenyl)-α-(5-mercapto-4-methyl-4H-1,2,4-triazol-3-yl)-2-methyl-6-quinolinemethanol] showed a melting point of 166 °C.
Next, `CSc1nnc(C(O)(c2ccc(Cl)cc2)c2ccc3nc(C)cc(-c4cccc(Cl)c4)c3c2)n1C` (stereo not drawn) [Example B14b, 4-(3-chlorophenyl)-α-(4-chlorophenyl)-2-methyl-α-[4-methyl-5-(methylthio)-4H-1,2,4-triazol-3-yl]-6-quinolinemethanol]: 142 °C; `Cn1cncc1-c1nc(-c2cccc(Cl)c2)c2cc(C(O)(c3ccc(Cl)cc3)c3cncn3C)ccc2n1` (stereo not drawn) [Example B6, 4-(3-chlorophenyl)-α-(4-chlorophenyl)-α,2-bis(1-methyl-1H-imidazol-5-yl)-6-quinazolinemethanol]: 160 °C; `Cn1cncc1C(O)(c1ccc(Cl)cc1)c1ccc2nc(N)nc(-c3cccc(Cl)c3)c2c1` (stereo not drawn) [Example B19, 2-amino-4-(3-chlorophenyl)-α-(4-chlorophenyl)-α-(1-methyl-1H-imidazol-5-yl)-6-quinazolinemethanol]: 235 °C.
Under `Cn1cncc1C(O)(c1ccc(Cl)cc1)c1ccc2nc(-c3cccnc3)nc(-c3cccc(Cl)c3)c2c1` (stereo not drawn) [Example B26, 4-(3-chlorophenyl)-α-(4-chlorophenyl)-α-(1-methyl-1H-imidazol-5-yl)-2-(3-pyridinyl)-6-quinazolinemethanol] stands 178 °C; under `Cn1cncc1C(O)(c1ccc(Cl)cc1)c1ccc2nc(/C=C/C(N)=O)cc(-c3cccc(Cl)c3)c2c1` (racemic) [Example B11, (±)-(E)-3-[4-(3-chlorophenyl)-6-[(4-chlorophenyl)hydroxy(1-methyl-1H-imidazol-5-yl)methyl]-2-quinolinyl]-2-propenamide], 80 °C.
Next, `Cc1cc(-c2cccc(Cl)c2)c2cc(C(O)(c3ccc(Cl)cc3)c3nncn3C)ccc2n1.O` (centres unmarked) (hydrate or solvate): 150 °C.
`Cn1cncc1C(O)(c1ccc(Cl)cc1)c1ccc2nc(C=NO)cc(-c3cccc(Cl)c3)c2c1` (racemic) [Example B1, (±)-4-(3-chlorophenyl)-6-[(4-chlorophenyl)hydroxy(1-methyl-1H-imidazol-5-yl)methyl]-2-quinolinecarboxaldehyde, oxime] registered a melting point of 205 °C.
Next, `Cn1cncc1C(O)(c1ccc(Cl)cc1)c1ccc2nc(C#Cc3ccccc3)cc(-c3cccc(Cl)c3)c2c1` (stereo not drawn) [Example B25, 4-(3-chlorophenyl)-α-(4-chlorophenyl)-α-(1-methyl-1H-imidazol-5-yl)-2-(phenylethynyl)-6-quinolinemethanol]: 154 °C.
Under `Cc1nc(-c2cccc(Cl)c2)c2cc(C(O)(c3ccc(Cl)cc3)c3cncn3C)ccc2n1` (stereo not drawn) [Example B13, 4-(3-chlorophenyl)-α-(4-chlorophenyl)-2-methyl-α-(1-methyl-1H-imidazol-5-yl)-6-quinazolinemethanol] stands 223 °C.
In the case of `CSc1nnc(C(N)(c2ccc(Cl)cc2)c2ccc3nc(C)cc(-c4cccc(Cl)c4)c3c2)n1C` (stereo not drawn) [Example B16b, 4-(3-chlorophenyl)-α-(4-chlorophenyl)-2-methyl-α-[4-methyl-5-(methylthio)-4H-1,2,4-triazol-3-yl]-6-quinolinemethanamine], the melting point came out at 128 °C.

(Values after patent US7053105B2, “Farnesyl transferase inhibiting quinoline and quinazoline derivatives as farnesyl transferase inhibitors” (Janssen Pharmaceutica, N.V., priority 2000, dated 2006).)
